Results from patent US20120115869A1, “TETRAZOLE DERIVATIVES” (MERCK SERONO S.A., priority 2009, published 2012).

Target: T1, CRTH2 (DP2) (Homo sapiens, UniProt Q9Y5Y4)
T1 construct: host or cells: CHO cells
T1 sequence (Q9Y5Y4 1-395): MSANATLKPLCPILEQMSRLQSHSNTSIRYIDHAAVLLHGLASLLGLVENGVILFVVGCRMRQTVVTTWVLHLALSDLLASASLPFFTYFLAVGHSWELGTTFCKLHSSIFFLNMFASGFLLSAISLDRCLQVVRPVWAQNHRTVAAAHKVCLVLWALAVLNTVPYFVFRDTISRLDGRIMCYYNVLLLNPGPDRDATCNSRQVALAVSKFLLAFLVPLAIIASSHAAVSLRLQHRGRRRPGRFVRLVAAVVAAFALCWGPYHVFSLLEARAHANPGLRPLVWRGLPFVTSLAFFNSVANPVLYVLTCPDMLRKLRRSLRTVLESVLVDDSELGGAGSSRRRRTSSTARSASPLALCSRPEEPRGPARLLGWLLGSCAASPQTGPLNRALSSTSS
Assay: Radioligand binding Scintillation Proximity Assay ([3H]PGD2, hCRTH2-CHO cell membranes)
Conditions: 1.5 nM [3H]PGD2, hCRTH2-CHO cell membranes, SPA
Description: Adherent CHO cells expressing hCRTH2 (Euroscreen, Belgium) were cultured in 225 cm^2 cell culture flasks (Corning, USA) in 30 ml of medium. After two rinses of phosphate buffered saline (PBS), cells were harvested in 10 ml of PBS containing 1 mM EDTA, centrifuged at 500×g for 5 min at 4° C. and frozen at −80° C. The pellet was re-suspended in 50 mM Tris-HCl, pH 7.4, 2 mM EDTA, 250 mM Sucrose, containing protease inhibitor cocktail tablets, (Complete EDTA-free, Roche, Germany) and incubated 30 min at 4° C. Cells were disrupted by nitrogen cavitation (Parr Instruments, USA) at 4° C. (800 p.s.i. for 30 min), and centrifuged at 500×g for 10 min at 4° C. Pellet containing nuclei and cellular debris was discarded and supernatant was centrifuged 60 min at 4° C. at 45000×g. Membrane pellet was re-suspended in storage buffer (10 mM HEPES/KOH pH 7.4, 1 mM EDTA, 250 mM sucrose, protease inhibitor cocktail tablets) using Dounce homogenization and frozen in liquid nitrogen, and stored at 80° C.
Non-specific binding was determined in the presence of 10 μM PGD2 (Cayman, USA). Competing Compounds of Formula (I) were diluted in dimethylsulphoxide so that the total volume of dimethylsulfoxide was kept constant at 1% dimethylsulphoxide (Me2SO). Serial dilutions of […] were prepared and 10 μl each of the compounds of Formula (I) stock solutions were added to the binding assay reagents and incubated for 90 min with agitation at room temperature.

Structure (SMILES) | IC50
C#Cc1cccc(CN(C(C)=O)c2cc(-c3nnn[nH]3)ccc2F)c1 [Example 2, N-(3-ethynylbenzyl)-N-[2-fluoro-5-(1H-tetrazol-5-yl)phenyl]acetamide] | 0.175 µM
CCCCC(=O)N(Cc1ccc2ccccc2c1)c1cccc(-c2nnn[nH]2)c1 [Example 3, N-(2-naphthylmethyl)-N-[3-(1H-tetrazol-5-yl)phenyl]pentanamide] | 0.049 µM
CCCCC(=O)N(Cc1ccc2ccccc2c1)c1cc(-c2nnn[nH]2)ccc1F [Example 6, N-[2-fluoro-5-(1H-tetrazol-5-yl)phenyl]-N-(2-naphthylmethyl)pentanamide] | 0.023 µM
CC(C)CC(=O)N(Cc1ccc2c(c1)OCCO2)c1cc(-c2nnn[nH]2)ccc1F [Example 7, N-(2,3-dihydro-1,4-benzodioxin-6-ylmethyl)-N-[2-fluoro-5-(1H-tetrazol-5-yl)phenyl]-3-methylbutanamide] | 0.0071 µM
CCCC(=O)N(Cc1ccc2c(c1)OCCO2)c1cc(-c2nnn[nH]2)ccc1F [Example 8, N-(2,3-dihydro-1,4-benzodioxin-6-ylmethyl)-N-[2-fluoro-5-(1H-tetrazol-5-yl)phenyl]butanamide] | 0.0063 µM
CCCCC(=O)N(Cc1ccc2c(c1)OCCO2)c1cc(-c2nnn[nH]2)c(F)cc1F [Example 10, N-[2,4-difluoro-5-(1H-tetrazol-5-yl)phenyl]-N-(2,3-dihydro-1,4-benzodioxin-6-ylmethyl)pentanamide] | 0.054 µM
CCCCC(=O)N(Cc1cc2ccccc2o1)c1cc(-c2nnn[nH]2)ccc1F [Example 12, N-(1-benzofuran-2-ylmethyl)-N-[2-fluoro-5-(1H-tetrazol-5-yl)phenyl]pentanamide] | 0.0086 µM
CCCCC(=O)N(Cc1ccc(OC)cc1)c1cccc(-c2nnn[nH]2)c1 [Example 14, N-(4-methoxybenzyl)-N-[3-(1H-tetrazol-5-yl)phenyl]pentanamide] | 0.061 µM
CCCCC(=O)N(Cc1ccc2c(c1)OCCO2)c1cc(-c2nnn[nH]2)ccc1F [Example 15, N-(2,3-dihydro-1,4-benzodioxin-6-ylmethyl)-N-[2-fluoro-5-(1H-tetrazol-5-yl)phenyl]pentanamide] | 0.0042 µM
CCCCC(=O)N(Cc1cccs1)c1cccc(-c2nnn[nH]2)c1 [Example 16, N-[3-(1H-tetrazol-5-yl)phenyl]-N-(2-thienylmethyl)pentanamide] | 0.588 µM
CCC(=O)N(Cc1cccs1)c1cccc(-c2nnn[nH]2)c1 [Example 17, N-[3-(1H-tetrazol-5-yl)phenyl]-N-(2-thienylmethyl)propanamide] | 1.59 µM
CCC(=O)N(Cc1ccsc1)c1cccc(-c2nnn[nH]2)c1 [Example 18, N-[3-(1H-tetrazol-5-yl)phenyl]-N-(3-thienylmethyl)propanamide] | 2.1 µM
CCCC(=O)N(Cc1ccc2c(c1)OCCO2)c1cccc(-c2nnn[nH]2)c1 [Example 19, N-(2,3-dihydro-1,4-benzodioxin-6-ylmethyl)-N-[3-(1H-tetrazol-5-yl)phenyl]butanamide] | 0.015 µM
CCC(=O)N(Cc1ccc2c(c1)OCCO2)c1cccc(-c2nnn[nH]2)c1 [Example 20, N-(2,3-dihydro-1,4-benzodioxin-6-ylmethyl)-N-[3-(1H-tetrazol-5-yl)phenyl]propanamide] | 0.051 µM
CCCCC(=O)N(Cc1ccsc1)c1cccc(-c2nnn[nH]2)c1 [Example 21, N-[3-(1H-tetrazol-5-yl)phenyl]-N-(3-thienylmethyl)pentanamide] | 0.759 µM
CCC(=O)N(Cc1ccc(OC(F)(F)F)cc1)c1cccc(-c2nnn[nH]2)c1 [Example 22, N-[3-(1H-tetrazol-5-yl)phenyl]-N-[4-(trifluoromethoxy)benzyl]propanamide] | 0.132 µM
CCC(=O)N(Cc1c(-c2ccccc2)noc1C)c1cccc(-c2nnn[nH]2)c1 [Example 23, N-[(5-methyl-3-phenylisoxazol-4-yl)methyl]-N-[3-(1H-tetrazol-5-yl)phenyl]propanamide] | 2.96 µM
CCC(=O)N(Cc1c(C)noc1-c1ccccc1)c1cccc(-c2nnn[nH]2)c1 [Example 24, N-[(3-methyl-5-phenylisoxazol-4-yl)methyl]-N-[3-(1H-tetrazol-5-yl)phenyl]propanamide] | 2.18 µM
CCC(=O)N(Cc1cccc(OC)c1)c1cccc(-c2nnn[nH]2)c1 [Example 25, N-(3-methoxybenzyl)-N-[3-(1H-tetrazol-5-yl)phenyl]propanamide] | 0.444 µM

Structure (SMILES) | IC50
CCC(=O)N(Cc1ccc(OC)cc1)c1cccc(-c2nnn[nH]2)c1 [Example 26, N-(4-methoxybenzyl)-N-[3-(1H-tetrazol-5-yl)phenyl]propanamide] | 0.268 µM
CCC(=O)N(Cc1ccc(C(F)(F)F)cc1)c1cccc(-c2nnn[nH]2)c1 [Example 27, N-[3-(1H-tetrazol-5-yl)phenyl]-N-[4-(trifluoromethyl)benzyl]propanamide] | 0.129 µM
CCC(=O)N(Cc1cccc(C(F)(F)F)c1)c1cccc(-c2nnn[nH]2)c1 [Example 28, N-[3-(1H-tetrazol-5-yl)phenyl]-N-[3-(trifluoromethyl)benzyl]propanamide] | 0.268 µM
CCCCC(=O)N(Cc1cccc(OC(F)(F)F)c1)c1cc(F)cc(-c2nnn[nH]2)c1 [Example 29, N-[3-fluoro-5-(1H-tetrazol-5-yl)phenyl]-N-[3-(trifluoromethoxy)benzyl]pentanamide] | 0.0052 µM
CCC(=O)N(Cc1ccccc1)c1cccc(-c2nnn[nH]2)c1 [Example 30, N-benzyl-N-[3-(1H-tetrazol-5-yl)phenyl]propanamide] | 2.25 µM
CCC(=O)N(Cc1ccc(F)cc1)c1cccc(-c2nnn[nH]2)c1 [Example 31, N-(4-fluorobenzyl)-N-[3-(1H-tetrazol-5-yl)phenyl]propanamide] | 1.54 µM
CCC(=O)N(Cc1cccc(F)c1)c1cccc(-c2nnn[nH]2)c1 [Example 32, N-(3-fluorobenzyl)-N-[3-(1H-tetrazol-5-yl)phenyl]propanamide] | 1.69 µM
CCC(=O)N(Cc1ccccc1F)c1cccc(-c2nnn[nH]2)c1 [Example 33, N-(2-fluorobenzyl)-N-[3-(1H-tetrazol-5-yl)phenyl]propanamide] | 1.16 µM
CCC(=O)N(Cc1ccc2c(c1)OCO2)c1cccc(-c2nnn[nH]2)c1 [Example 34, N-(1,3-benzodioxol-5-ylmethyl)-N-[3-(1H-tetrazol-5-yl)phenyl]propanamide] | 0.147 µM
CCCCC(=O)N(Cc1ccc(OC(F)(F)F)cc1)c1cc(F)cc(-c2nnn[nH]2)c1 [Example 35, N-[3-fluoro-5-(1H-tetrazol-5-yl)phenyl]-N-[4-(trifluoromethoxy)benzyl]pentanamide] | 0.0089 µM
CCC(=O)N(Cc1ccc(OC(F)(F)F)cc1)c1cc(F)cc(-c2nnn[nH]2)c1 [Example 36, N-[3-fluoro-5-(1H-tetrazol-5-yl)phenyl]-N-[4-(trifluoromethoxy)benzyl]propanamide] | 0.0093 µM
CCC(=O)N(Cc1cccc(OC(F)(F)F)c1)c1cccc(-c2nnn[nH]2)c1 [Example 42, N-[3-(1H-tetrazol-5-yl)phenyl]-N-[3-(trifluoromethoxy)benzyl]propanamide] | 0.245 µM
CCC(=O)N(Cc1nc2ccccc2s1)c1cccc(-c2nnn[nH]2)c1 [Example 43, N-(1,3-benzothiazol-2-ylmethyl)-N-[3-(1H-tetrazol-5-yl)phenyl]propanamide] | 0.663 µM
CCC(=O)N(Cc1nonc1C)c1cccc(-c2nnn[nH]2)c1 [Example 44, N-[(4-methyl-1,2,5-oxadiazol-3-yl)methyl]-N-[3-(1H-tetrazol-5-yl)phenyl]propanamide] | 2.1 µM
CCC(=O)N(Cc1ccc(OC(F)(F)F)c(Cl)c1)c1cccc(-c2nnn[nH]2)c1 [Example 45, N-[3-chloro-4-(trifluoromethoxy)benzyl]-N-[3-(1H-tetrazol-5-yl)phenyl]propanamide] | 0.083 µM
CCC(=O)N(Cc1cccc(C#CCOC)c1)c1cccc(-c2nnn[nH]2)c1 [Example 47, N-[3-(3-methoxyprop-1-yn-1-yl)benzyl]-N-[3-(1H-tetrazol-5-yl)phenyl]propanamide] | 1.14 µM
CCC(=O)N(Cc1cccc(C#CCO)c1)c1cccc(-c2nnn[nH]2)c1 [Example 48, N-[3-(3-hydroxyprop-1-yn-1-yl)benzyl]-N-[3-(1H-tetrazol-5-yl)phenyl]propanamide] | 1.27 µM
CCCC#Cc1cccc(CN(C(=O)CC)c2cccc(-c3nnn[nH]3)c2)c1 [Example 49, N-(3-pent-1-yn-1-ylbenzyl)-N-[3-(1H-tetrazol-5-yl)phenyl]propanamide] | 0.618 µM
